The term IC50 denotes the midpoint of a concentration-inhibition curve.

A short description of experiment [1]: (§1) Test for beta-lactamase Inhibitory Activity: he inhibitory activities of present compounds against various enzymes were measured by spectrophotometric assay using […] and using nitrocefin as a substrate [J. Antimicrob. Chemother., 28, pp 775-776 (1991)]. The concentration of inhibitor (IC50) which inhibits by 50% the reaction of hydrolysis of nitrocefin by the enzyme is determined.

A short description of experiment [2]: as §1. This is another data set of the same source.

`CC(=O)NNC(=O)[C@@H]1CC[C@@H]2CN1C(=O)N2OS(=O)(=O)O`: the values for the IC50 in experiment [1] and in experiment [2] were 8 nM and 91 nM, respectively.
